Assay results reported in PubChem BioAssay AID1259407 (Chemical Carcinogenesis Research Information System (CCRIS), 2018).
The source made the active and inactive calls. The rule behind the calls is not given here.

System: CCRIS mutagenicity, Ames/micronucleus/aberration tests
Assay: CCRIS mutagenicity studies
[1] = Test System: AMES SALMONELLA TYPHIMURIUM, Strain/Indicator: TA98, Metabolic Activation: NONE, Method: PREINCUBATION
[2] = Test System: AMES SALMONELLA TYPHIMURIUM, Strain/Indicator: TA100, Metabolic Activation: NONE, Method: PREINCUBATION
[3] = Test System: AMES SALMONELLA TYPHIMURIUM, Strain/Indicator: TA104, Metabolic Activation: NONE, Method: PREINCUBATION
[4] = Test System: AMES SALMONELLA TYPHIMURIUM, Strain/Indicator: TA98, Metabolic Activation: NONE, Method: STANDARD PLATE
[5] = Test System: AMES SALMONELLA TYPHIMURIUM, Strain/Indicator: TA100, Metabolic Activation: NONE, Method: STANDARD PLATE

NC(=O)NNC(N)=O
mutagenic call (Test System: AMES SALMONELLA TYPHIMURIUM, Strain/Indicator: TA97, Metabolic Activation: HAMSTER, LIVER, S-9, AROCLOR 1254 (10 OR 30%), Method: PREINCUBATION): inactive; negative | mutagenic call (Test System: AMES SALMONELLA TYPHIMURIUM, Strain/Indicator: TA97, Metabolic Activation: NONE, Method: PREINCUBATION): inactive; negative | mutagenic call (Test System: AMES SALMONELLA TYPHIMURIUM, Strain/Indicator: TA97, Metabolic Activation: RAT, LIVER, S-9, AROCLOR 1254 (10 OR 30%), Method: PREINCUBATION): inactive; negative | mutagenic call (Test System: AMES SALMONELLA TYPHIMURIUM, Strain/Indicator: TA98, Metabolic Activation: HAMSTER, LIVER, S-9, AROCLOR 1254 (10 OR 30%), Method: PREINCUBATION): inactive; negative | mutagenic call [1]: inactive; negative | mutagenic call (Test System: AMES SALMONELLA TYPHIMURIUM, Strain/Indicator: TA98, Metabolic Activation: RAT, LIVER, S-9, AROCLOR 1254 (10 OR 30%), Method: PREINCUBATION): inactive; negative | mutagenic call (Test System: AMES SALMONELLA TYPHIMURIUM, Strain/Indicator: TA100, Metabolic Activation: HAMSTER, LIVER, S-9, AROCLOR 1254 (10 OR 30%), Method: PREINCUBATION): inactive; negative | mutagenic call [2]: inactive; negative | mutagenic call (Test System: AMES SALMONELLA TYPHIMURIUM, Strain/Indicator: TA100, Metabolic Activation: RAT, LIVER, S-9, AROCLOR 1254 (10 OR 30%), Method: PREINCUBATION): inactive; negative | mutagenic call (Test System: AMES SALMONELLA TYPHIMURIUM, Strain/Indicator: TA1535, Metabolic Activation: HAMSTER, LIVER, S-9, AROCLOR 1254 (10 OR 30%), Method: PREINCUBATION): inactive; negative | mutagenic call (Test System: AMES SALMONELLA TYPHIMURIUM, Strain/Indicator: TA1535, Metabolic Activation: NONE, Method: PREINCUBATION): inactive; negative | mutagenic call (Test System: AMES SALMONELLA TYPHIMURIUM, Strain/Indicator: TA1535, Metabolic Activation: RAT, LIVER, S-9, AROCLOR 1254 (10 OR 30%), Method: PREINCUBATION): inactive; negative | mutagenic call (Test System: AMES SALMONELLA TYPHIMURIUM, Strain/Indicator: TA1537, Metabolic Activation: HAMSTER, LIVER, S-9, AROCLOR 1254 (10 OR 30%), Method: PREINCUBATION): inactive; negative | mutagenic call (Test System: AMES SALMONELLA TYPHIMURIUM, Strain/Indicator: TA1537, Metabolic Activation: NONE, Method: PREINCUBATION): inactive; negative | mutagenic call (Test System: AMES SALMONELLA TYPHIMURIUM, Strain/Indicator: TA1537, Metabolic Activation: RAT, LIVER, S-9, AROCLOR 1254 (10 OR 30%), Method: PREINCUBATION): inactive; negative

Nc1ncnc2c1ncn2/C=C/C=O
mutagenic call (Test System: AMES SALMONELLA TYPHIMURIUM, Strain/Indicator: HISD3052, Metabolic Activation: NONE, Method: STANDARD PLATE): active; positive

CCn1cc(C(=O)O)c(=O)c2cnc(N3CCNCC3)nc21
mutagenic call (End Point: In vitro micronucleus, Test System: WTK-1 human lymphoma cells, Metabolic Activation: None): inactive; negative | mutagenic call [1]: inactive; negative | mutagenic call (Test System: AMES SALMONELLA TYPHIMURIUM, Strain/Indicator: TA98, Metabolic Activation: RAT LIVER S-9, AROCLOR 1254, Method: PREINCUBATION): inactive; negative | mutagenic call [2]: inactive; negative | mutagenic call (Test System: AMES SALMONELLA TYPHIMURIUM, Strain/Indicator: TA100, Metabolic Activation: RAT LIVER S-9, AROCLOR 1254, Method: PREINCUBATION): inactive; negative | mutagenic call (Test System: AMES SALMONELLA TYPHIMURIUM, Strain/Indicator: TA102, Metabolic Activation: RAT LIVER S-9, AROCLOR 1254, Method: PREINCUBATION): active; positive | mutagenic call [3]: inactive; negative | mutagenic call (Test System: AMES SALMONELLA TYPHIMURIUM, Strain/Indicator: TA104, Metabolic Activation: RAT LIVER S-9, AROCLOR 1254, Method: PREINCUBATION): inactive; negative | mutagenic call (Test System: AMES SALMONELLA TYPHIMURIUM, Strain/Indicator: UHT8414, Metabolic Activation: NONE, Method: PREINCUBATION): inactive; negative | mutagenic call (Test System: AMES SALMONELLA TYPHIMURIUM, Strain/Indicator: UHT8414, Metabolic Activation: RAT LIVER S-9, AROCLOR 1254, Method: PREINCUBATION): inactive; negative

CC(=O)C[C@@H]1CCCCCC(=O)O[C@H](CC(C)=O)CCC(=O)CCC(=O)O1
mutagenic call (Test System: CHINESE HAMSTER V-79, Strain/Indicator: V-79 (HPRT)/6-THIOGUANINE, Metabolic Activation: NONE): active; positive

ClCc1ccc2ccc3cccc4ccc1c2c34
mutagenic call (Test System: AMES SALMONELLA TYPHIMURIUM, Strain/Indicator: TA98, Metabolic Activation: NONE): active; positive | mutagenic call [1]: active; positive | mutagenic call [4]: active; positive | mutagenic call [5]: active; positive

Oc1cccc2c1ccc1c3c4c(cccc4cc12)C=C3
mutagenic call [4]: inactive; negative | mutagenic call (Test System: AMES SALMONELLA TYPHIMURIUM, Strain/Indicator: TA98, Metabolic Activation: RAT, LIVER, S-9, AROCLOR 1254 (0, 0.4, 0.8, 1.15 OR 1.5 MG/PLATE), Method: STANDARD PLATE): active; positive

O=[N+]([O-])c1cc(-c2cccc([N+](=O)[O-])c2O)ccc1O
mutagenic call [1]: inactive; negative

O=C/C(=C(/Cl)C(=O)O)C(Cl)Cl
mutagenic call (Test System: AMES SALMONELLA TYPHIMURIUM, Strain/Indicator: TA97, Metabolic Activation: NONE, Method: STANDARD PLATE): inactive; negative | mutagenic call (Test System: AMES SALMONELLA TYPHIMURIUM, Strain/Indicator: TA97, Metabolic Activation: RAT, LIVER, S-9, PHENOBARBITAL, Method: STANDARD PLATE): inactive; negative | mutagenic call [1]: active; positive | mutagenic call [4]: active; positive | mutagenic call (Test System: AMES SALMONELLA TYPHIMURIUM, Strain/Indicator: TA98, Metabolic Activation: RAT, LIVER, S-9, PHENOBARBITAL, Method: STANDARD PLATE): inactive; negative | mutagenic call [2]: active; positive | mutagenic call [5]: active; positive | mutagenic call (Test System: AMES SALMONELLA TYPHIMURIUM, Strain/Indicator: TA100, Metabolic Activation: RAT, LIVER, S-9, PHENOBARBITAL, Method: STANDARD PLATE): inactive; negative | mutagenic call [3]: active; positive

COc1cc2c(c(OC)c1CO)C(=O)c1ccccc1C2=O
mutagenic call [1]: inactive; negative | mutagenic call (Test System: AMES SALMONELLA TYPHIMURIUM, Strain/Indicator: TA98, Metabolic Activation: RAT, LIVER, S-9, PCB, Method: PREINCUBATION): inactive; negative | mutagenic call [2]: inactive; negative | mutagenic call (Test System: AMES SALMONELLA TYPHIMURIUM, Strain/Indicator: TA100, Metabolic Activation: RAT, LIVER, S-9, PCB, Method: PREINCUBATION): inactive; negative

COc1cc(Cl)c(OC)cc1Cl
mutagenic call (Test System: AMES SALMONELLA TYPHIMURIUM, Strain/Indicator: TA98, Metabolic Activation: HAMSTER, LIVER, S-9, AROCLOR 1254 (5 OR 10%), Method: PREINCUBATION): inactive; negative | mutagenic call (Test System: AMES SALMONELLA TYPHIMURIUM, Strain/Indicator: TA98, Metabolic Activation: HAMSTER, LIVER, S-9, AROCLOR 1254 (30%), Method: PREINCUBATION): inactive; negative | mutagenic call [1]: inactive; negative | mutagenic call (Test System: AMES SALMONELLA TYPHIMURIUM, Strain/Indicator: TA98, Metabolic Activation: RAT, LIVER, S-9, AROCLOR 1254 (30%), Method: PREINCUBATION): inactive; negative | mutagenic call (Test System: AMES SALMONELLA TYPHIMURIUM, Strain/Indicator: TA100, Metabolic Activation: HAMSTER, LIVER, S-9, AROCLOR 1254 (5 OR 10%), Method: PREINCUBATION): inactive; negative | mutagenic call (Test System: AMES SALMONELLA TYPHIMURIUM, Strain/Indicator: TA100, Metabolic Activation: HAMSTER, LIVER, S-9, AROCLOR 1254 (30%), Method: PREINCUBATION): active; positive | mutagenic call [2]: inactive; negative | mutagenic call (Test System: AMES SALMONELLA TYPHIMURIUM, Strain/Indicator: TA100, Metabolic Activation: RAT, LIVER, S-9, AROCLOR 1254 (30%), Method: PREINCUBATION): inactive; negative
